Assay results as given in patent publication US20140086890A1, “COMPOSITIONS AND METHODS FOR TREATING HYPERPROLIFERATIVE DISORDERS” (priority 2004, published 2014).

Columns and labels:
neoplastic cells = conditions: by reducing levels of c-FLIP; cited from earlier work
MIC-A/B [1] = experiment: MIC-A/B expression by flow cytometry; type: cell-based, human; conditions: Depsipeptide 25 ng/ml or Velcade 10 nM, 6-40 hours
[2] = system: human renal cell carcinoma (RCC) cell lines JOHW, SAUJ, STAR; experiment: NK cell susceptibility assay of pre-sensitized human RCC cell lines; type: cell-based; conditions: for autologous NK cell susceptibility of human RCC SAUJ or STAR (FIG. 11): 24 hours, 25 ng/ml Depsipeptide or 10 nM Velcade; for allogeneic NK cell susceptibility of human RCC (FIG. 9) / autologous NK cell susceptibility of human RCC (FIG. 10): JOHW, 10 nM Velcade or 25 ng/ml Depsipeptide, 40 hours, 4 hour assay
Method: Cells were thereafter labeled with ^51Cr for 1 hour and tested for susceptibility to allogeneic NK cell mediated lysis in a standard 4 hour assay.
Cells were thereafter labeled with ^51Cr for 1 hour and tested for susceptibility to autologous NK cell mediated lysis in a standard 4 hour assay.
(§1) Thereafter, the tumor cells were tested for NK cell susceptibility in a standard cytotoxicity assay. Autologous NK cells were purified from peripheral blood by negative magnetic bead depletion of T cells, B cells, monocytes and granulocytes. NK cell purity was evaluated by CD56 and CD3 staining by flow cytometry. Purity of NK cells was always between 90-100%.

[3] = system: human RCC cell lines (JOHW, PORJC, SAUJ and STAR); type: cell-based
Method: (§3) Cells were then plated in a 96-well plate at 4,000 cell/well. Recombinant TRAIL [75-300 ng/ml] or recombinant Fas-ligand [12.5-100 ng/ml] was added to the cells and supernatant was harvested after 16 hours incubation. The level of lysis by TRAIL and Fas-ligand were calculated based on spontaneous and maximum ^51Cr release.

MHC class I = MHC class I expression by flow cytometry; type: cell-based, human and murine; conditions: Depsipeptide 25 ng/ml or Velcade 10 nM, 6-40 hours
Method: (§2) Level of apoptosis was evaluated by Annexin-V and 7-AAD staining (upper left chart). Expression of MHC class I was evaluated by flow cytometry by HLA-ABC for human RCC and H-2Dd/Kd for murine RCC (lower left chart). […] Cells were labeled with ^3H thymidine for analysis of proliferation (upper right chart).

[4] = system: human RCC cell lines (JOHW, PORJC, SAUJ and STAR); type: cell-based; remark: listed apart in the source
Method: as §3

MIC-A/B [5] = conditions: cited from earlier work
tumors = conditions: mouse, in vivo; cited from earlier work
RENCA tumor cells = experiment: NK cell susceptibility assay of pre-sensitized RENCA tumor cells; type: cell-based, murine; conditions: for NK cell susceptibility of RENCA (FIG. 8): 14 hours, 10 nM Velcade or 25 ng/ml Depsipeptide, autologous Balb/c NK cells, 4 hour assay; for susceptibility of RENCA tumor cells to NK cell mediated lysis (FIG. 7): pretreated 40 hours, Depsipeptide 25 ng/ml or Velcade 10 nM, NK cells from B10.d2 mouse
Method: as §1, with “assay.” for “assay. Autologous”, “splenocytes from a B 10.d2 mouse” for “peripheral blood”, “DX5” for “CD56”
Cells were thereafter labeled with ^51Cr for 1 hour and tested for susceptibility to NK cell mediated lysis in a standard 4 hour assay. Murine autologous Balb/c NK cells tested against untreated (squares), Velcade (circles) or Depsipeptide (triangles) treated RENCA cell lines (Balb/c in origin).

human and murine RCC = experiment: 3H thymidine proliferation; type: cell-based; conditions: various concentrations, 72 hours
Method: as §2

[6] = system: RCC cell lines (JOHW, SAUJ, STAR, RENCA); experiment: apoptosis by Annexin-V and 7-AAD staining; type: cell-based, human and murine; conditions: Depsipeptide 25 ng/ml or Velcade 10 nM, 6-40 hours
Method: as §2

[7] = while retaining graft-versus-tumor effects; cited from earlier work
HDAC = conditions: cited from earlier work

Structure (SMILES)	sensitization of neoplastic cells to TRAIL-mediated apoptosis (neoplastic cells)	MIC-A/B expression of human RCC (FIG. 15) (MIC-A/B [1])	autologous NK cell susceptibility of human RCC SAUJ or STAR (FIG. 11) [2]	allogeneic NK cell susceptibility of human RCC (FIG. 9) [2]	autologous NK cell susceptibility of human RCC (FIG. 10) [2]	cell lysis of presensitized RCC cells by TRAIL (FIG. 13) [3]	MHC Class I expression of RCC cell lines (FIG. 15) (MHC class I)	cell lysis of presensitized RCC cells by Fas ligand (FIG. 14) [4]	MIC-A/B upon treatment (MIC-A/B [5])	anti-tumor effects: cell growth and formation of tumors in mice models (tumors)	NK cell susceptibility of RENCA (FIG. 8) (RENCA tumor cells)	susceptibility of RENCA tumor cells to NK cell mediated lysis (FIG. 7) (RENCA tumor cells)	proliferation of RCC cell lines (FIG. 15) (human and murine RCC)	viability (apoptosis) of RCC cell lines (FIG. 15) [6]	acute graft-versus-host disease [7]	concentrations at which HDAC activity is inhibited (HDAC)
CC(C)C[C@H](NC(=O)[C@H](Cc1ccccc1)NC(=O)c1cnccn1)B(O)O [PS-341]	sensitizes															
C/C=C1\NC(=O)[C@H]2CSSCC/C=C/[C@H](CC(=O)N[C@H](C(C)C)C(=O)N2)OC(=O)[C@H](C(C)C)NC1=O [Depsipeptide]		no differences	enhanced autologous NK cell susceptibility	enhanced allogeneic NK cell susceptibility	enhanced autologous NK cell susceptibility	Increased cell lysis	no differences	Increased cell lysis	induction	anti-tumor effects	enhanced NK cell susceptibility	more susceptible	no differences	no differences		
CC(C)C[C@H](NC(=O)[C@H](Cc1ccccc1)NC(=O)c1cnccn1)B(O)O [Velcade]			enhanced autologous NK cell susceptibility	enhanced allogeneic NK cell susceptibility	enhanced autologous NK cell susceptibility		no differences				enhanced NK cell susceptibility	more susceptible	no differences	no differences	inhibits	
C/C=C1\NC(=O)[C@H]2CSSCC/C=C/[C@H](CC(=O)N[C@H](C(C)C)C(=O)N2)OC(=O)[C@H](C(C)C)NC1=O [FR901228]																micromolar concentrations
